Key:
[1] = test system: keratinocyte differentiation markers of KRT1 and KRT10; assay: RT-qPCR (TAQMAN real-time PCR) gene expression of keratinocyte differentiation markers in UVB-irradiated NHEK; type: cell-based, human; settings: compound 10 μg/ml
Method: (§1) Normal human epidermal keratinocytes (NHEK) were cultured in a 6-well plate incubator. Specifically, the normal human epidermal keratinocytes (NHEK) were cultured for 4 days by replacing it with phosphate-buffered saline (PBS) after 24 hours to irradiate UVB (25 mJ/cm^2) and adding cortisone (10 μg/ml) and a compound represented by Chemical Formula 1-1 (glucocerebrosides (soy, 98%), Avanti Polar Lipids, Inc.) to NHEK culture media.
In addition, the normal human epidermal keratinocytes (NHEK) were treated with TRIZOL to separate RNA, which was used to synthesize cDNA through RT-PCR (reverse transcriptional polymerase chain reaction). The synthesized cDNA was used to perform TAQMAN® real-time PCR and measure gene expression amounts of keratinocyte differentiation markers of KRT1 and KRT10, and the results are shown in FIGS. 2 and 3. Referring to FIGS. 2 and 3, in the well to which the compound represented by Chemical Formula 1 (10 μg/ml) was added, the gene expression of the keratinocyte differentiation markers (KRT10, KRT1) inhibited by ultraviolet (UVB) rays in the keratinocytes was increased. […]

[2] = target: T1, 11β-hydroxysteroid dehydrogenase type 1 (Homo sapiens, UniProt P28845); assay: Cortisone reductase activity inhibition: cortisol concentration in the culture solution of UVB-irradiated, cortisone-treated NHEK, by ELISA; type: cell-based; settings: UVB 25 mJ/cm^2, cortisone 10 μg/ml, compound 10 μg/ml, cultured 4 days, ELISA (FIG. 1)
T1 construct: endogenous in cells; host or cells: normal human epidermal keratinocytes (NHEK), UVB-irradiated
Method: as §1
Subsequently, the cell culture solution was collected to measure a cortisol concentration in an ELISA method, and the results are shown in FIG. 1. […] Accordingly, a composition including the compound represented by Chemical Formula 1-1 as an active ingredient according to an embodiment turned out to inhibit activity of 11β-hydroxysteroid dehydrogenase type 1 that is cortisone reductase.

T1 sequence (P28845 whole entry): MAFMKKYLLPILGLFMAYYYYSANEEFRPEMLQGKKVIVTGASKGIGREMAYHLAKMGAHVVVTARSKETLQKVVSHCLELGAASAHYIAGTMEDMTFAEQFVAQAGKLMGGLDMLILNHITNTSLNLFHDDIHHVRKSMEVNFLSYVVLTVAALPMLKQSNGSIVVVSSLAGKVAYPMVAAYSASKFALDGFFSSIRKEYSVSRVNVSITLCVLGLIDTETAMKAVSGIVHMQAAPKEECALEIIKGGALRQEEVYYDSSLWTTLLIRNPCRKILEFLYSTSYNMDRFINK

- cortisol concentration in cell culture solution [2]: greatly did not increase
SMILES: CCCCCCCCC/C=C/CC/C=C/[C@@H](O)[C@H](CO[C@@H]1OC(CO)[C@H](O)C(O)C1O)NC(=O)C(O)CCCCCCCCCCCCCC (stereo partly drawn) [Chemical Formula 1-1, glucocerebrosides (soy, 98%)]
- gene expression of keratinocyte differentiation marker KRT10 inhibited by UVB ([1]; RT-qPCR (FIG. 2)): increased
- gene expression of keratinocyte differentiation marker KRT1 inhibited by UVB ([1]; RT-qPCR (FIG. 3)): increased
